Laboratory results from patent US20200216441A1, “PESTICIDALLY ACTIVE HETEROCYCLIC DERIVATIVES WITH SULFUR CONTAINING SUBSTITUENTS” (SYNGENTA PARTICIPATIONS AG, priority 2017, published 2020).

Columns and labels:
[1] = system: Bemisia tabaci (Cotton White Fly); conditions: in Gossypium hirsutum, foliar, 144 h
[2] = system: Myzus persicae (Green Peach Aphid); assay: whole plant or invertebrate; assay type: in vivo; conditions: 144 h, test rate of 24 ppm, systemic, roots of infested pea seedlings in test solution, 6 days
[3] = system: Euschistus heros (Neotropical Brown Stink Bug); assay: whole plant or invertebrate; assay type: in vivo; conditions: 120 h, application rate of 200 ppm, N2 nymphs on sprayed soybean leaves, 5 days after infestation, read-out: effect in at least one of the two categories (mortality or growth inhibition)
[4] = system: Spodoptera littoralis (Egyptian Cotton Leaf Worm); assay: whole plant or invertebrate; conditions: in Gossypium barbadense, foliar, 72 h, read-out: control (mortality, anti-feeding effect, growth inhibition)
[5] = system: Myzus persicae (Green Peach Aphid); assay: whole plant or invertebrate; conditions: foliar, 144 h
[6] = system: Diabrotica Balteata (Corn Root Worm); assay: Diabrotica balteata (Corn Root Worm); conditions: in Zea mays, 96 h, read-out: effect in at least one of the two categories (mortality or growth inhibition)
[7] = system: Plutella xylostella (Diamond Back Moth); assay: whole plant or invertebrate; assay type: in vivo; conditions: 120 h, application rate of 200 ppm, L2 larvae on treated artificial diet, 5 days after infestation, read-out: effect in at least one of the two categories (mortality or growth inhibition)
[8] = system: Tetranychus urticae (Two-Spotted Spider Mite); conditions: foliar, 192 h

CCS(=O)(=O)c1cc(OCCSC)cnc1-c1nc2cc(C(F)(F)F)ncc2n1C [Compound P11, 2-[3-ethylsulfonyl-5-(2-methylsulfanylethoxy)-2-pyridyl]-3-methyl-6-(trifluoromethyl)imidazo[4,5-c]pyridine]
≥ 80%: mortality at 200 ppm [1] | mortality at 24 ppm [2] | percent effect (mortality or growth inhibition) at 200 ppm [3] | mortality at 200 ppm [4] | mortality at 200 ppm [5]

CCS(=O)(=O)c1cc(OCC2CC2(F)F)cnc1-c1nc2cc(C(F)(F)F)ncc2n1C (stereo not drawn) [Compound P67, 2-[5-[(2,2-difluorocyclopropyl)methoxy]-3-ethylsulfonyl-2-pyridyl]-3-methyl-6-(trifluoromethyl)imidazo[4,5-c]pyridine]
≥ 80%: mortality at 200 ppm [6] | mortality at 200 ppm [1] | percent effect (mortality or growth inhibition) at 200 ppm [3] | mortality at 200 ppm [4] | percent effect (mortality or growth inhibition) at 200 ppm [7] | mortality at 200 ppm [5]

CCS(=O)(=O)c1cc(OCCOC)cnc1-c1nc2cc(C(F)(F)F)ncc2n1C [Compound P8, 2-[3-ethylsulfonyl-5-(2-methoxyethoxy)-2-pyridyl]-3-methyl-6-(trifluoromethyl)imidazo[4,5-c]pyridine]
≥ 80%: mortality at 200 ppm [6] | mortality at 200 ppm [1] | mortality at 24 ppm [2] | percent effect (mortality or growth inhibition) at 200 ppm [3] | mortality at 200 ppm [4] | percent effect (mortality or growth inhibition) at 200 ppm [7] | mortality at 200 ppm [5]

CCS(=O)(=O)c1cc(OCC2(C#N)CC2)ccc1-c1nc2cc(C(F)(F)F)ncc2n1C [Compound P101, 1-[[3-ethylsulfonyl-4-[3-methyl-6-(trifluoromethyl)imidazo[4,5-c]pyridin-2-yl]phenoxy]methyl]cyclopropanecarbonitrile]
≥ 80%: mortality at 200 ppm [6] | mortality at 200 ppm [1] | mortality at 24 ppm [2] | percent effect (mortality or growth inhibition) at 200 ppm [3] | mortality at 200 ppm [4] | percent effect (mortality or growth inhibition) at 200 ppm [7] | mortality at 200 ppm [5]

CCS(=O)(=O)c1cc(OC(C)F)cnc1-c1nc2cc(C(F)(F)F)ncc2n1C (stereo not drawn) [Compound P40, 2-[3-ethylsulfonyl-5-(1-fluoroethoxy)-2-pyridyl]-3-methyl-6-(trifluoromethyl)imidazo[4,5-c]pyridine]
≥ 80%: mortality at 200 ppm [6] | mortality at 200 ppm [1] | mortality at 24 ppm [2] | percent effect (mortality or growth inhibition) at 200 ppm [3] | mortality at 200 ppm [4] | percent effect (mortality or growth inhibition) at 200 ppm [7] | mortality at 200 ppm [5]

CCS(=O)(=O)c1cc(OC(C)C)cnc1-c1nc2cc(S(=O)(=O)C(F)F)ncc2n1C [Compound P88, 6-(difluoromethylsulfonyl)-2-(3-ethylsulfonyl-5-isopropoxy-2-pyridyl)-3-methyl-imidazo[4,5-c]pyridine]
≥ 80%: mortality at 200 ppm [8] | mortality at 24 ppm [2] | percent effect (mortality or growth inhibition) at 200 ppm [3] | mortality at 200 ppm [4] | percent effect (mortality or growth inhibition) at 200 ppm [7] | mortality at 200 ppm [5]

CCS(=O)(=O)c1cc(OCC(C)C)cnc1-c1nc2cc(C(F)(F)F)ncc2n1C [Compound P75, 2-(3-ethylsulfonyl-5-isobutoxy-2-pyridyl)-3-methyl-6-(trifluoromethyl)imidazo[4,5-c]pyridine]
≥ 80%: mortality at 200 ppm [6] | mortality at 200 ppm [1] | mortality at 24 ppm [2] | percent effect (mortality or growth inhibition) at 200 ppm [3] | mortality at 200 ppm [4] | percent effect (mortality or growth inhibition) at 200 ppm [7] | mortality at 200 ppm [5]

CCS(=O)(=O)c1cc(OC(C)C)cnc1-c1nc2cc(S(=O)(=O)C(F)(F)F)ncc2n1C [Compound P72, 2-(3-ethylsulfonyl-5-isopropoxy-2-pyridyl)-3-methyl-6-(trifluoromethylsulfonyl)imidazo[4,5-c]pyridine]
≥ 80%: mortality at 200 ppm [6] | mortality at 200 ppm [1] | mortality at 24 ppm [2] | percent effect (mortality or growth inhibition) at 200 ppm [3] | mortality at 200 ppm [4] | percent effect (mortality or growth inhibition) at 200 ppm [7] | mortality at 200 ppm [5]

CCS(=O)(=O)c1cc(OC(C)(C)CF)cnc1-c1nc2cc(C(F)(F)F)ncc2n1C [Compound P30, 2-[3-ethylsulfonyl-5-(2-fluoro-1,1-dimethyl-ethoxy)-2-pyridyl]-3-methyl-6-(trifluoromethyl)imidazo[4,5-c]pyridine]
≥ 80%: mortality at 200 ppm [6] | mortality at 200 ppm [1] | mortality at 24 ppm [2] | percent effect (mortality or growth inhibition) at 200 ppm [3] | mortality at 200 ppm [4] | percent effect (mortality or growth inhibition) at 200 ppm [7] | mortality at 200 ppm [5]

CCS(=O)(=O)c1cc(OC(C)C)cnc1-c1nc2cc([S+]([O-])C(F)F)ncc2n1C (stereo not drawn) [Compound P87, 6-(difluoromethylsulfinyl)-2-(3-ethylsulfonyl-5-isopropoxy-2-pyridyl)-3-methyl-imidazo[4,5-c]pyridine]
≥ 80%: mortality at 200 ppm [8] | mortality at 24 ppm [2] | percent effect (mortality or growth inhibition) at 200 ppm [3] | mortality at 200 ppm [4] | percent effect (mortality or growth inhibition) at 200 ppm [7] | mortality at 200 ppm [5]

CCS(=O)(=O)c1cc(OC(CF)CF)ccc1-c1nc2cc(C(F)(F)F)ncc2n1C [Compound P100, 2-[2-ethylsulfonyl-4-[2-fluoro-1-(fluoromethyl)ethoxy]phenyl]-3-methyl-6-(trifluoromethyl)imidazo[4,5-c]pyridine]
≥ 80%: mortality at 200 ppm [6] | mortality at 200 ppm [1] | mortality at 24 ppm [2] | percent effect (mortality or growth inhibition) at 200 ppm [3] | mortality at 200 ppm [4] | percent effect (mortality or growth inhibition) at 200 ppm [7] | mortality at 200 ppm [5]

CCS(=O)(=O)c1cc(OCCCC#N)cnc1-c1nc2cc(C(F)(F)F)ncc2n1C [Compound P70, 4-[[5-ethylsulfonyl-6-[3-methyl-6-(trifluoromethyl)imidazo[4,5-c]pyridin-2-yl]-3-pyridyl]oxy]butanenitrile]
≥ 80%: mortality at 200 ppm [1] | mortality at 24 ppm [2] | percent effect (mortality or growth inhibition) at 200 ppm [3] | mortality at 200 ppm [4] | percent effect (mortality or growth inhibition) at 200 ppm [7] | mortality at 200 ppm [5]

CCS(=O)(=O)c1cc(OC2CC(F)(F)C2)cnc1-c1nc2cc(C(F)(F)F)ncc2n1C [Compound P42, 2-[5-(3,3-difluorocyclobutoxy)-3-ethylsulfonyl-2-pyridyl]-3-methyl-6-(trifluoromethyl)imidazo[4,5-c]pyridine]
≥ 80%: mortality at 200 ppm [6] | mortality at 200 ppm [1] | mortality at 24 ppm [2] | percent effect (mortality or growth inhibition) at 200 ppm [3] | mortality at 200 ppm [4] | percent effect (mortality or growth inhibition) at 200 ppm [7] | mortality at 200 ppm [5]

CCS(=O)(=O)c1cc(OCC(F)(F)F)cnc1-c1nc2cc(C(F)(F)F)ncc2n1C [Compound P15, 2-[3-ethylsulfonyl-5-(2,2,2-trifluoroethoxy)-2-pyridyl]-3-methyl-6-(trifluoromethyl)imidazo[4,5-c]pyridine]
≥ 80%: mortality at 200 ppm [6] | mortality at 200 ppm [1] | mortality at 24 ppm [2] | percent effect (mortality or growth inhibition) at 200 ppm [3] | mortality at 200 ppm [4] | percent effect (mortality or growth inhibition) at 200 ppm [7] | mortality at 200 ppm [5]

CCS(=O)(=O)c1cc(OCC(F)F)cnc1-c1nc2cc(C(F)(F)F)ncc2n1C [Compound P16, 2-[5-(2,2-difluoroethoxy)-3-ethylsulfonyl-2-pyridyl]-3-methyl-6-(trifluoromethyl)imidazo[4,5-c]pyridine]
≥ 80%: mortality at 200 ppm [6] | mortality at 200 ppm [1] | mortality at 24 ppm [2] | percent effect (mortality or growth inhibition) at 200 ppm [3] | mortality at 200 ppm [4] | percent effect (mortality or growth inhibition) at 200 ppm [7] | mortality at 200 ppm [5]
